Source: patent publication EP0535528A1, “Antibacterial 5-Nitro-1-methyl-imidazolyl-3-terbutyl-2-hydroxy-aryl-carbinols” (EURORESEARCH S.r.L., priority 1991, dated 1993)
In brackets after ≈: the same amount, converted by molar mass. Read-outs that look alike come from different tables or passages of the source.

Assays:
[1] = Oral and intraperitoneal acute toxicity in mice (LD50, Probits method); assay type: in vivo; conditions: mouse, in vivo, Swiss female mice, 14 days observation
Description: 20 Swiss female albino mice are used for this test of the average weight of 20 g (±2), coming from Nossan breeding .
Cages: in Makrolon® with saw dust litter, Number of animals per cage: 5 Acclimation period: 1 week Temperature: 22°C (± 2°C) Humidity : 60%, Diet: pellets for mice produced by Nossan firm, Water ad libitum Fast before the treatment: 16 hours
Oral by gastric route and intraperitoneal.
The substances to be studied: EU11100, EU11102, EU11103, EU11104 are treated with 0.5% carboxymethylcellulose in spring water, for the oral administration, whereas the same substances are intraperitoneally administered in the form of a physiological solution .
For each of the above mentioned substances, a mother suspension is prepared having a concentration in the active ingredient of 250 mg/ml for the oral administration, and analogously a mother suspension is prepared for the intraperitoneal administration having a concentration of the desired active principle of 100 mg/ml.
The following doses are used • a) oral route: 5000 mg/kg • b) intraperitoneal route : 2000 mg/kg
If mortality is observed at the above mentioned doses, other doses are administered in order to obtain a dose-response curve.
5 animals are used for every utilized concentration.
After the administration of the above substances the animals are kept under observation for 14 days , during which the mortality and the behaviour is observed.
LD₅₀ is determined on the base of the cumulative mortality observed in the successive 14 days after the administration by using the Probits method.

[2] = Direct mutation test (16 h treatment in the growth step); assay type: cell-based
Description: The tests are carried out on the compound EU11100 with or without metabolic activity for a treatment period of 16 h in the growth step. The used concentrations are 0.25-0.50 mg/ml without metabolic activation and 0.075-0.150 mg/ml with metabolic activation.

Helicobapter pylori [3] = assay: Inhibition halos of the bacterial growth (impregnated disks on agar); assay type: cell-based
Description: Comparison substance: Metronidazole Solubilization of the substances : All the substances to be studied are dissolved at room temperature in DMSO.
Some commercially available antibiogram disks are so impregnated with the above mentioned compounds that each disk has concentration equal to 10, 1, 0.1, 0.01 µg.
10 strains of Helicobapter pylori are used of recent clinical isolation.
Columbia Blood Agar Base is used, containing 5% of defibrinated horse blood, 2 % of calf serum, 2 vials of Vitox per liter of medium and Vancomicine (10 µg/ml) Trimetoprim lactate(5 µg/ml) and Polimixin B (2.5 U/ml).
0.1 ml of a suspension of the different used strains are uniformly distributed onto Petri plates, containing 20 ml of Columbia Blood Agar base, obtained by taking a sample, by means of a platinum loop, of different colonies from a 48 hours culture, grown in anaerobiosis jars with "Gas Pack", without a catalyst and diluted into a physiological solution.
4 disks per plate, previously impregnated with the substances under examination, are then placed onto the agar layer of each plate.
After 48 hours of anaerobiosis incubation, as above described, the inhibition halos of the bacterial growth, produced by the different activity of the substances inside the agar, are evaluated.

Salmonella typhimurium = assay: Ames test, mutagenic activity; assay type: cell-based
[4] = solubility of the isolated product; assay type: physicochemical
Helicobapter pylori [5] = assay: Minimal inhibiting concentration (agar dilution); assay type: cell-based
Description: Substances under examination: EU11100, EU11102, EU11103, EU11104. Comparison substance: Metronidazole Solubilization of the substances: All the substances to be studied are dissolved at room temperature in DMSO. […] 10 strains of Helicobapter pylori are used of recent clinical isolation […] The sowing of the bacteria, prepared as described in the preceding test is carried out by means a "multi-point inoculator". After 48 hours incubation under the condition described in the preceding test, the plates are examined and the Minimal Inhibiting Concentration is evaluated, namely that dose corresponding to growth absence.

[6] = section A (without), 0.25 mg/ml
[7] = section A (without), 0.50 mg/ml

Compound: COc1cc(C(O)c2ncc([N+](=O)[O-])n2C)c(O)c(C(C)(C)C)c1 (centres unmarked) [EU11100, 5-nitro-1-methyl-imidazolyl-3-terbutyl-2-hydroxy-5-methoxy-phenyl-carbinol]
- LD50 at 336 h ([1]; po, per os, read-out: LD50 os): > 5000 mg/kg
- LD50 at 336 h ([1]; ip, read-out: LD50 i.p.): 890 mg/kg
- Frequency of: Mutation [2, 6]: 1.60
- Survival (%) [2, 6]: 71.1%
- Frequency of: Mutation [2, 7]: 0.00
- Survival (%) [2, 7]: 36.4%
- Frequency of: Mutation ([2]; section B (with), 0.075 mg/ml): 2.11
- Survival (%) ([2]; section B (with), 0.075 mg/ml): 89.9%
- Frequency of: Mutation ([2]; section B (with), 0.150 mg/ml): 3.22
- Survival (%) ([2]; section B (with), 0.150 mg/ml): 29.5%
- activity against the Helicobapter pylori strains used (Helicobapter pylori [3]; 10 strains, 0.1 µg/disk): still able to produce halos against all the strains used
- Inhibition halo (mm), Average (Helicobapter pylori [3]; average of 10 strains, 10 µg/disk): 43.7 mm
- Inhibition halo (mm) at the concentration (µg/disk) (Helicobapter pylori [3]; strain 1, 0.01 µg/disk): 0 mm
- Inhibition halo (mm) at the concentration (µg/disk) (Helicobapter pylori [3]; strain 1, 0.1 µg/disk): 26 mm
- Inhibition halo (mm) at the concentration (µg/disk) (Helicobapter pylori [3]; strain 1, 1 µg/disk): 35 mm
- Inhibition halo (mm) at the concentration (µg/disk) (Helicobapter pylori [3]; strain 1, 10 µg/disk): 50 mm
- Inhibition halo (mm) at the concentration (µg/disk) (Helicobapter pylori [3]; strain 2, 0.01 µg/disk): 0 mm
- Inhibition halo (mm) at the concentration (µg/disk) (Helicobapter pylori [3]; strain 2, 1 µg/disk): 30 mm
- Inhibition halo (mm) at the concentration (µg/disk) (Helicobapter pylori [3]; strain 2, 10 µg/disk): 44 mm
- Inhibition halo (mm) at the concentration (µg/disk) (Helicobapter pylori [3]; strain 3, 0.01 µg/disk): 0 mm
- Inhibition halo (mm) at the concentration (µg/disk) (Helicobapter pylori [3]; strain 3, 0.1 µg/disk): 14 mm
- Inhibition halo (mm) at the concentration (µg/disk) (Helicobapter pylori [3]; strain 3, 1 µg/disk): 30 mm
- Inhibition halo (mm) at the concentration (µg/disk) (Helicobapter pylori [3]; strain 3, 10 µg/disk): 38 mm
- Inhibition halo (mm) at the concentration (µg/disk) (Helicobapter pylori [3]; strain 4, 0.01 µg/disk): 0 mm
- Inhibition halo (mm) at the concentration (µg/disk) (Helicobapter pylori [3]; strain 4, 0.1 µg/disk): 26 mm
- Inhibition halo (mm) at the concentration (µg/disk) (Helicobapter pylori [3]; strain 4, 1 µg/disk): 35 mm
- Inhibition halo (mm) at the concentration (µg/disk) (Helicobapter pylori [3]; strain 4, 10 µg/disk): 50 mm
- Inhibition halo (mm) at the concentration (µg/disk) (Helicobapter pylori [3]; strain 5, 0.01 µg/disk): 0 mm
- Inhibition halo (mm) at the concentration (µg/disk) (Helicobapter pylori [3]; strain 5, 0.1 µg/disk): 12 mm
- Inhibition halo (mm) at the concentration (µg/disk) (Helicobapter pylori [3]; strain 5, 1 µg/disk): 22 mm
- Inhibition halo (mm) at the concentration (µg/disk) (Helicobapter pylori [3]; strain 5, 10 µg/disk): 38 mm
- Inhibition halo (mm) at the concentration (µg/disk) (Helicobapter pylori [3]; strain 6, 0.01 µg/disk): 0 mm
- Inhibition halo (mm) at the concentration (µg/disk) (Helicobapter pylori [3]; strain 6, 0.1 µg/disk): 22 mm
- Inhibition halo (mm) at the concentration (µg/disk) (Helicobapter pylori [3]; strain 6, 1 µg/disk): 34 mm
- Inhibition halo (mm) at the concentration (µg/disk) (Helicobapter pylori [3]; strain 6, 10 µg/disk): 48 mm
- Inhibition halo (mm) at the concentration (µg/disk) (Helicobapter pylori [3]; strain 7, 0.01 µg/disk): 0 mm
- Inhibition halo (mm) at the concentration (µg/disk) (Helicobapter pylori [3]; strain 7, 0.1 µg/disk): 12 mm
- Inhibition halo (mm) at the concentration (µg/disk) (Helicobapter pylori [3]; strain 7, 1 µg/disk): 28 mm
- Inhibition halo (mm) at the concentration (µg/disk) (Helicobapter pylori [3]; strain 7, 10 µg/disk): 35 mm
- Inhibition halo (mm) at the concentration (µg/disk) (Helicobapter pylori [3]; strain 8, 0.01 µg/disk): 0 mm
- Inhibition halo (mm) at the concentration (µg/disk) (Helicobapter pylori [3]; strain 8, 0.1 µg/disk): 21 mm
- Inhibition halo (mm) at the concentration (µg/disk) (Helicobapter pylori [3]; strain 8, 10 µg/disk): 48 mm
- Inhibition halo (mm) at the concentration (µg/disk) (Helicobapter pylori [3]; strain 9, 0.01 µg/disk): 0 mm
- Inhibition halo (mm) at the concentration (µg/disk) (Helicobapter pylori [3]; strain 9, 1 µg/disk): 28 mm
- Inhibition halo (mm) at the concentration (µg/disk) (Helicobapter pylori [3]; strain 9, 10 µg/disk): 43 mm
- Inhibition halo (mm) at the concentration (µg/disk) (Helicobapter pylori [3]; strain 10, 0.01 µg/disk): 0 mm
- Inhibition halo (mm) at the concentration (µg/disk) (Helicobapter pylori [3]; strain 10, 0.1 µg/disk): 14 mm
- Inhibition halo (mm) at the concentration (µg/disk) (Helicobapter pylori [3]; strain 10, 10 µg/disk): 43 mm
- toxicity to the Salmonella strains (Salmonella typhimurium; 1000 µg/capsule, in the absence of metabolic activation): toxic
- mutagenic activity (Salmonella typhimurium; general statement): practically no mutagenic activity
- doubling of the base value (Salmonella typhimurium; strain TA-100, without metabolic activation, 500 µg/capsule): 1.95 times
- signal in other strains (Salmonella typhimurium; strains other than TA-100, without metabolic activation): do not give rise to any particular signal
- spontaneous reversion of Salmonella (Salmonella typhimurium; with metabolic activation, 250, 500 and 1000 µg/capsule): does not increase the spontaneous reversion of Salmonella
- solubility [4]: Soluble in CH₃OH, benzene, acetone, ethyl ether; insoluble in water and ligroin.
- MIC50 (Helicobapter pylori [5]; 10 strains): 0.03 µg/mL (≈ 0.0895 µM)
- MIC90 (Helicobapter pylori [5]; 10 strains): 0.06 µg/mL (≈ 0.179 µM)
- MIC range (Helicobapter pylori [5]; 10 strains): 0.015 to 0.016 µg/mL
- MIC values (Helicobapter pylori [5]; in words, compared with Metronidazole): very low MIC values
- MIC (Helicobapter pylori [5]; strain 1): 0.12 µg/mL (≈ 0.358 µM)
- MIC (Helicobapter pylori [5]; strain 2): 0.03 µg/mL (≈ 0.0895 µM)
- MIC (Helicobapter pylori [5]; strain 3): 0.03 µg/mL (≈ 0.0895 µM)
- MIC (Helicobapter pylori [5]; strain 4): 0.03 µg/mL (≈ 0.0895 µM)
- MIC (Helicobapter pylori [5]; strain 5): 0.015 µg/mL (≈ 0.0447 µM)
- MIC (Helicobapter pylori [5]; strain 6): 0.03 µg/mL (≈ 0.0895 µM)
- MIC (Helicobapter pylori [5]; strain 7): 0.06 µg/mL (≈ 0.179 µM)
- MIC (Helicobapter pylori [5]; strain 8): 0.03 µg/mL (≈ 0.0895 µM)
- MIC (Helicobapter pylori [5]; strain 9): 0.03 µg/mL (≈ 0.0895 µM)
- MIC (Helicobapter pylori [5]; strain 10): 0.03 µg/mL (≈ 0.0895 µM)
